Measured values from patent publication US6495699B2, “Metalloproteinase inhibitors, pharmaceutical compositions containing them, and their use” (Agouron Pharmaceuticals Inc., priority 1996, dated 2002).
Where a name gives a salt, the structure may show the parent alone.

Legend:
[1] = target: T1, catalytic domain of human stromelysin (Hsln) (Homo sapiens, UniProt P08254); test: Fluorometric MCA-peptide hydrolysis assay, stromelysin (Hsln); format: biochemical; conditions: apparent Ki; 10 μM MCA peptide substrate, 37° C., pH 7.5; read-out: Hsln (Ki,app)
T1 construct: The catalytic domain of human stromelysin (Hsln) was obtained by expression and purification of a C-terminally truncated prostromelysin-1; made in house; host or cells: E. coli BL21
T1 sequence (P08254 100-272 limits assumed): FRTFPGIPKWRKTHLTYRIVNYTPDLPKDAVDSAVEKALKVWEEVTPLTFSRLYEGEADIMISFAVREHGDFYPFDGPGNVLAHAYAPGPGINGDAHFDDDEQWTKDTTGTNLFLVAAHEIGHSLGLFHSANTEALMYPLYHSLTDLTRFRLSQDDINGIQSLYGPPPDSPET
Method: The catalytic domain of human stromelysin (Hsln) was obtained by expression and purification of a C-terminally truncated prostromelysin-1 from E. coli host BL21 (see Marcy et al. Biochem., 1991, 30, 6476). The subsequent activation of the mature form (Hsln) was completed with 2 mM APMA for 1 hour at 37° C., followed by separation using a sizing column.
(§1) Assays were performed in assay buffer (50 mM Tricine pH 7.5, 200 mM sodium chloride, 10 mM calcium chloride, 0.5 mM zinc acetate containing 2% dimethyl sulfoxide (DMSO)) once the substrate and inhibitor were diluted into it. Stock solutions of inhibitors were prepared in 100% DMSO. Stock solutions of the substrate were prepared in 100% DMSO at a concentration of 6 mM.
(§2) The assay method was based on the hydrolysis of MCA-Pro-Leu-Gly-Leu-DPA-Ala-Arg-NH2 (American Peptide Co.) at 37° C. (see Knight, C. G. et al., FEBS, 1992, 296, 263-266). The fluorescence changes were monitored with a Perkin-Elmer LS-50B fluorimeter using an excitation wavelength of 328 nm and an emission wavelength of 393 nm. The substrate concentration used in the assays was 10 μM. The inhibitor was diluted into the assays from a solution in 100% DMSO, and controls substituted an equal volume of DMSO so that the final DMSO concentration from inhibitor and substrate dilution in all assays was 2%. […] Proper determination of steady-state rates of substrate cleavage required assay lengths of 60 minutes to allow for complete equilibration of the enzyme-inhibitor complex.
(§3) The Km for the MCA peptide substrate with the matrix metalloproteinases is quite high and exceeds its solubility under assay conditions. Consequently, the apparent Ki (Ki,app) was determined to describe the strength of inhibition. However, in this case, Ki,app would be essentially equal to Ki since [S]<<Km. For the determination of Ki,app, the concentration of the inhibitor was varied at a constant and low concentration of substrate and the steady-state rates of fluorescence change determined. In most cases absorptive quench due to the presence of ligand was not observed. For slow-binding inhibitors, onset of inhibition curves were collected for at least 45 minutes so that equilibrium was established. Steady-state rates of fluorescence change were obtained by fitting a curve to an equation for a single exponential decay containing a linear phase. The fitted value of the linear phase was taken as the steady-state rate. The steady-state rates were fitted to the Michaelis equation describing competitive inhibition by non-linear methods. Data resulting from tight-binding inhibition was analyzed, and Ki,app determined by fitting the data to the tight-binding equation of Morrison (Biochem. Biophys. Acta, vol. 185, pp. 269-286 (1969)) by non-linear methods.

[2] = target: T2, human collagenase-3 (Coll3) (Homo sapiens, UniProt P45452); test: Fluorometric MCA-peptide hydrolysis assay, collagenase-3 (Coll3); format: biochemical; conditions: apparent Ki; 10 μM MCA peptide substrate, 37° C., pH 7.5; read-out: Coll3 (Ki,app)
T2 construct: the catalytic domain was liberated by treatment with 2 mM APMA at room temperature overnight; ubiquitin (N, cleaved yes); made in house; host or cells: E. coli
Method: The propeptide and catalytic domain of human collagenase-3 (Coll3) was expressed in E. coli as an N-terminal fusion protein with ubiquitin. After purification of the fusion from inclusion bodies, the catalytic domain was liberated by treatment with 2 mM APMA at room temperature overnight. Final purification was completed using copper chelate chromatography.
as §1, §2
as §3, with “In most cases absorptive quench due to the presence of ligand was not observed.” left out

[3] = target: T3, fibroblast collagenase-1 catalytic domain (HFC) (Homo sapiens, UniProt P03956); test: Fluorometric MCA-peptide hydrolysis assay, fibroblast collagenase-1 (HFC); format: biochemical; conditions: apparent Ki; 10 μM MCA peptide substrate, 37° C., pH 7.5; read-out: HFC (Ki,app)
T3 construct: The catalytic domain of human collagenase-1 was expressed as a fusion protein with ubiquitin in E. coli; ubiquitin (cleaved yes); made in house; host or cells: E. coli
T3 sequence (P03956 100-269 limits assumed): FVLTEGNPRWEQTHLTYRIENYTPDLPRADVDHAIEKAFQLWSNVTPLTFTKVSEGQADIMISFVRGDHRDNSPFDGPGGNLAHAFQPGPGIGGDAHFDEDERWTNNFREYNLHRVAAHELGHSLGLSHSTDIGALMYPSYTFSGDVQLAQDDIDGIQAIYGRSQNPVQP
Method: The catalytic domain of human collagenase-1 was expressed as a fusion protein with ubiquitin in E. coli (see Gehring, E. R., J Biol. Chem., 1995, 270, 22507). After purification of the fusion protein, the fibroblast collagenase-1 catalytic domain (HFC) was released either by treatment with purified, active stromelysin-1 (1:50 w/w ratio), which generated nearly 100% N-terminal Phe1, or by autoprocessing the concentrated collagenase-1 fusion and then incubating at 37° C. for 1 hour. Final purification was completed using zinc chelate chromatography.
as §1, §2, §3

[4] = target: T4, human progelatinase A (GelA), catalytic and fibronectin-like portion (Homo sapiens, UniProt P08253); test: Fluorometric MCA-peptide hydrolysis assay, gelatinase A (GelA); format: biochemical; conditions: apparent Ki; 10 μM MCA peptide substrate, 37° C., pH 7.5
T4 construct: The catalytic and fibronectin-like portion of human progelatinase A (GelA) was expressed as a fusion protein with ubiquitin; ubiquitin; made in house; host or cells: E. coli
T4 sequence (P08253 110-465 limits assumed): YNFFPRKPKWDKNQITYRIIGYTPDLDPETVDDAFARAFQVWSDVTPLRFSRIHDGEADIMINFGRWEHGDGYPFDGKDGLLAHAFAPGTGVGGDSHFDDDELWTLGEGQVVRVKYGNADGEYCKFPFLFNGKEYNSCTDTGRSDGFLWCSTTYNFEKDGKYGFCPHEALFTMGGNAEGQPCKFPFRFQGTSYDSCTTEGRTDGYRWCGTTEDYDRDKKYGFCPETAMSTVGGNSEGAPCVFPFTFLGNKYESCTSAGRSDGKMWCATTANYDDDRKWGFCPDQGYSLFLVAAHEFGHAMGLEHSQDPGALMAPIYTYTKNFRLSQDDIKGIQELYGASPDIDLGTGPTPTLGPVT
Method: The catalytic and fibronectin-like portion of human progelatinase A (GelA) was expressed as a fusion protein with ubiquitin in E. Coli. Assays were carried out on autocatalytically activated material.
as §1, §2, §3

Human matrilysin (Matr) = target: T5, Human matrilysin (Matr) (Homo sapiens, UniProt P09237); test: Fluorometric MCA-peptide hydrolysis assay, matrilysin (Matr); format: biochemical; conditions: apparent Ki; 10 μM MCA peptide substrate, 37° C., pH 7.5; read-out: Matr (Ki,app)
T5 construct: the catalytic domain was liberated by treatment with 2 mM APMA at 37° C. for 2 hours; ubiquitin (cleaved yes); made in house; host or cells: E. coli
T5 sequence (P09237 95-267): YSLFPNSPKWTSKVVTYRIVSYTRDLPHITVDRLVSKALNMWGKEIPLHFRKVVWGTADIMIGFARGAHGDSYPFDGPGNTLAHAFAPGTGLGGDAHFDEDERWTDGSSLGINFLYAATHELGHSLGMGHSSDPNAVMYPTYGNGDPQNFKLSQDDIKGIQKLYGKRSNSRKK
Method: Human matrilysin (Matr) was expressed in E. coli as a fusion protein with ubiquitin. After purification of the matrilysin/ubiquitin fusion from inclusion bodies, the catalytic domain was liberated by treatment with 2 mM APMA at 37° C. for 2 hours. Final purification was complete using copper chelate chromatography.
as §1, §2, §3

Compound	Ki [1]	Ki [2]	Ki [3]	melting point	GelA (Ki,app) [4]	Ki (Human matrilysin (Matr))
O=C(CC(C(=O)N[C@H]1CCCCNC1=O)n1cnc(-c2ccc(-c3ccccc3)cc2)c1)NO (mixture of isomers) [Example 19(a)]	31 nM	43 nM	57000 nM	–	–	–
CNC(=O)[C@@H](NC(=O)C(CC(=O)O)n1cnc(-c2ccc(-c3ccccc3)cc2)c1)C(C)(C)C (mixture of isomers) [Example 18(c)]	180 nM	31 nM	24000 nM	187 to 188.2 °C	–	–
CC(C)(C)[C@@H](CO)NC(=O)C(CC(=O)NO)n1cnc(-c2ccc(-c3ccccc3)cc2)c1 (mixture of isomers) [Example 19(b), 3(RS)-(3-Biphenyl-4-yl-1H-imidazol-1-yl)-N^4-(2,2-dimethyl-1(S)-hydroxymethylpropyl)-N^1-hydroxy-succindiamide]	17 nM	9.7 nM	66000 nM	–	–	–
CNC(=O)[C@@H](NC(=O)C(CC(=O)NO)n1cnc(-c2ccc(-c3ccccc3)cc2)c1)C(C)(C)C (mixture of isomers) [Example 19(e)]	2.3 nM	0.13 nM	310 nM	–	–	–
CNC(=O)[C@@H](NC(=O)[C@@H](CC(=O)O)n1ccc(-c2ccncc2)c1)C(C)(C)C [Example 1(d), N-[2,2-Dimethyl-1(S)-(methylcarbamoyl)propyl]-3(R)-[3-(pyridin-4-yl)-1H-pyrrol-1-yl]succinamic Acid]	1220 nM	24 nM	4500 nM	145 to 148 °C	3.9 nM	–
O=C(O)C[C@H](C(=O)N[C@H]1Cc2cn(c3ccccc23)CCCCCCNC1=O)n1cccc1 [Example 1(o), N-(9-oxo-1,8-Diaza-tricyclo[10.6.1.0^13,18]nonadeca-12(19), 13,15,17-tetraen-10S-yl)-3(R)-1H-pyrrol-1-yl-succinamic Acid]	> 10000 nM	–	51500 nM	139 to 144 °C	–	15000 nM
O=C(O)C[C@H](C(=O)N[C@H](CO)c1ccccc1)n1ccc(-c2ccc(-c3ccncc3)cc2)c1 [Example 5(b), N-(2-Hydroxy-1(S)-phenylethyl)-3(R)-[3-[4-(pyridin-4-yl)phenyl]-1H-pyrrol-1-yl]succinamic Acid]	30 nM	9.1 nM	> 12000 nM	–	1.04 nM	5200 nM
CC(C)(C)[C@H](NC(=O)[C@@H](CC(=O)O)n1ccc(-c2ccc(-c3ccc(C#N)cc3)cc2)c1)C(=O)Nc1ccncc1 [Example 5(d), 3(R)-[3-(4′-Cyanobiphenyl-4-yl)-1H-pyrrol-1-yl]-N-[2,2-dimethyl-1(S)-(pyridin-4-ylcarbamoyl)propyl]succinamic Acid Formate Salt]	1.6 nM	0.23 nM	> 2000 nM	–	0.028 nM	4.5 nM
O=C(O)C[C@H](C(=O)N[C@@H]1c2ccccc2C[C@H]1O)n1ccc(-c2ccc(-c3ccncc3)cc2)c1 [Example 6(a), N-(2(R)-Hydroxyindan-1(R)-yl)-3(R)-[3-[4-(pyridin-4-yl)phenyl]-1H-pyrrol-1-yl]succinamic Acid]	15 nM	15.6 nM	8860 nM	–	6.62 nM	1500 nM
CCC[C@H](C(=O)O)[C@H](C(=O)N[C@H](CO)C(C)(C)C)n1ccc(-c2ccc(-c3ccc(C#N)cc3)cc2)c1 [Example 10(c), 2S-[1R-(3-(4′-Cyanobiphenyl-4-yl)-1H-pyrrol-1-yl)-1-(2,2-dimethyl-1(S)-(hydroxymethyl)propylcarbamoyl)-methyl]-pentanoic Acid]	40 nM	50 nM	–	130 to 132 °C	22 nM	2180 nM
COC(=O)c1ccc(NC(=O)[C@H](CC(C)C)NC(=O)[C@@H](CC(=O)O)c2cccs2)cc1 [Example 17(a), 4-[2(S)-(2(R)-Carboxymethyl-2-(thien-2-yl)acetylamino]-4-methyl-valeroyl]-aminobenzoic Acid Methyl Ester]	965 nM	–	32000 nM	197 to 200 °C	–	454 nM
CC(C)(C)[C@@H](CO)NC(=O)[C@@H](CC(=O)NO)n1cnc(-c2ccc(-c3ccccc3)cc2)c1 [Example 19(c), 3(R)-(3-Biphenyl-4-yl-1H-imidazol-1-yl)-N^4-(2,2-dimethyl-1(S)-hydroxymethylpropyl)-N^1-hydroxy-succindiamide]	17 nM	6.5 nM	45000 nM	157.5 to 160 °C	–	–
CC(C)(C)[C@@H](CO)NC(=O)[C@H](CC(=O)NO)n1cnc(-c2ccc(-c3ccccc3)cc2)c1 [Example 19(d), 3(S)-(3-Biphenyl-4-yl-1H-imidazol-1-yl)-N^4-(2,2-dimethyl-1(S)-hydroxymethylpropyl)-N^1-hydroxy-succindiamide]	120 nM	43 nM	> 100000 nM	134.5 to 136.5 °C	–	–
